Experimental data published in paper PMC8151835, “Phosphinotripeptidic Inhibitors of Leucylaminopeptidases” (International Journal of Molecular Sciences, 2021).
Where two headings read alike, the source gives them in different places.

How the values were obtained:
[1] = target: T1, SsLAP (porcine leucine aminopeptidase) (Sus scrofa, UniProt P28839); assay: Inhibition of porcine kidney leucine aminopeptidase, L-Leu-p-nitroanilide hydrolysis, spectrophotometric at 405 nm; assay type: biochemical; conditions: for Ki: Dixon method, substrate L-Leu-p-nitroanilide, 37 °C, pH 8.5, mixture of SR and SS isomers
T1 construct: Leucyl aminopeptidase (SsLAP) was isolated from the porcine kidney; from tissue; host or cells: porcine kidney
T1 sequence (P28839 1-519): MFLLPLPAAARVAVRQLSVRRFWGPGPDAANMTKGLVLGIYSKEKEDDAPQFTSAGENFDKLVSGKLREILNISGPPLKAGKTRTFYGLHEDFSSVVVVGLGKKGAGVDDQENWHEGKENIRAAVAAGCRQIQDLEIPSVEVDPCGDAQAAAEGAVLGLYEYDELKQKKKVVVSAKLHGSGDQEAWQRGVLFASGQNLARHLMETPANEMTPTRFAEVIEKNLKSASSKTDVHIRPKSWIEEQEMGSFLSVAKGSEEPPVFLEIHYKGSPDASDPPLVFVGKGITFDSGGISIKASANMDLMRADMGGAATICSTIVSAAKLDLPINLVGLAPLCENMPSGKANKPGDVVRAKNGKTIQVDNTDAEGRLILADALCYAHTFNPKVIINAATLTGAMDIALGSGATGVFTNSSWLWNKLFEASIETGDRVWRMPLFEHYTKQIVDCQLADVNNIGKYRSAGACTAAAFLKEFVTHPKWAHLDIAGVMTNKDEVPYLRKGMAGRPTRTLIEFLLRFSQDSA
Method: (§1) The inhibition type, mechanism, and inhibition constants (Ki) were determined using graphical methods (see Figure 3 and Figure 4 and Tables S1 and S2). The inhibition type was determined by the Lineweaver-Burk plot based on the results of the inhibitory effect of the compounds on the hydrolytic activity of L-Leu-p-nitroanilide. […] It should be remembered that inhibitor activity was appointed for the racemic mixtures. All investigated compound 1–9 contains only S isomer in the P2 position, whereas in the P1 position, both R and S isomers were possible. Comparing the obtained activities of the investigated compounds 1–9 toward mammalian and plant aminopeptidases allows us to make some general observations. […] Additionally, SsLAP has better tolerance for the residue in the P1 position, whereas HvLAP prefers hPhe residue in this position.
Leucyl aminopeptidase (SsLAP) was isolated from the porcine kidney modified method described by Spackman and Ledeme. […] KM values correlate well with those given in the works 0.77 mM [58, 59]. The purity of the enzyme was confirmed by electrophoresis.
The enzymatic reaction in the presence of SsLAP was carried out at 37 °C in 7.5 mM TEA-HCl buffer (pH 8.5), containing 5 mM NaCl. The progress of the reaction was monitored spectrophotometrically (UV-VIS Spectrophotometer Cintra 303, GBC Scientific Equipment Ltd., Victoria, Australia) at a wavelength of 405 nm against a control sample containing no enzyme. The attempting mixture contained: Solution of the synthetic substrate L-Leu-p-nitroanilide in DMSO (substrate concentration: 1.5 to 0.2 mM—final concentration), 7.5 mM TEA-HCl buffer (pH 8.5), containing 5 mM NaCl, the solution of the potential inhibitor in reaction buffer (concentration of compound depending on the braking force), and enzyme (0.005 mg of the sample).
(§2) Kinetic constants KM, Vmax, and KI and type of inhibition was determined by methods Lineweaver-Burk, Dixon, Hanes-Woolf, and method half-inhibitory concentration. In the calculation, linearization methods used weighted regression. The values (Ki) given in the tables are the values calculated by the Dixon method. The Ki values calculated with all the above-mentioned methods close to each other. All measurements were made in three-fold repetitions. The graphs show the average values of the three measurements and Sb.

[2] = target: HvLAP (aminopeptidase from barley seeds); assay: Inhibition of barley seed aminopeptidase, L-Leu-p-nitroanilide hydrolysis, spectrophotometric at 405 nm; assay type: biochemical, Hordeum vulgare; conditions: Dixon method; substrate L-Leu-p-nitroanilide; 37 °C, pH 7.5; mixture of SR and SS isomers
Method: as §1
The aminopeptidase from barley seeds (HvLAP) was isolated and purified according to the procedure described by Oszywa. […] The purity of the enzyme was confirmed by electrophoresis.
The enzymatic reaction in the presence of aminopeptidase from barley seeds (HvLAP) was carried out at 37 °C in 50 mM Tris-HCl buffer (pH 7.5), containing 50 mM NaCl, and 10 mM 2-mercaptoethanol. The progress of the reaction was monitored spectrophotometrically (UV-VIS Spectrophotometer Cintra 303, GBC Scientific Equipment Ltd., Victoria, Australia) at a wavelength of 405 nm against a control sample containing no enzyme. The attempting mixture contained: Solution of the synthetic substrate L-Leu-p-nitroanilide in DMSO (substrate concentration: 1.5 to 0.2 mM—final concentration), 50 mM Tris-HCl buffer (pH 7.5), containing 50 mM NaCl, and 10 mM 2-mercaptoethanol, the solution of the potential inhibitor in reaction buffer (concentration of compound depending on the braking force), and enzyme (0.028 mg of the sample).
as §2

[3] = target: T1, SsLAP (porcine leucine aminopeptidase); set-up: method as in PMID 2568128, PMID 7126535; conditions: read-out: KM given in the works; cited from earlier work
[4] = tested on: HvLAP (aminopeptidase from barley seeds); set-up: method as in PMID 23434924, doi:10.1007/s11738-015-1789-8; conditions: read-out: KM of the isolated enzyme on the synthetic substrate; cited from earlier work

For `COC(=O)CCP(=O)(O)C(CC(C)C)NC(=O)[C@@H](N)Cc1ccc(-c2ccccc2)cc1` (stereo partly shown) [Compound 7], the Ki [1] was 130 ± 14 µM, the “inhibits SsLAP stronger than HvLAP (selectivity)” value ([1]; SsLAP over HvLAP) was about 10 times and the melting point was 150 to 152 °C. It also gave a Ki [2] of 1300 ± 84 µM.

With `CSCC[C@H](N)C(=O)NC(CCc1ccccc1)P(=O)(O)CCC(=O)O` (stereo partly shown) [Compound 4] the Ki [1] was 229 ± 40 µM, the melting point was 180 to 185 °C and the Ki [2] was 228 ± 10 µM.

With `COC(=O)CCP(=O)(O)C(CCc1ccccc1)NC(=O)[C@@H](N)Cc1ccc(C(=O)c2ccccc2)cc1` (stereo partly drawn) [Compound 8, Methyl 3-[(1-((S)-2-amino-3-(4-benzoylphenyl)propanamido)-3-phenylpropyl)phosphinyl]-propanoate] the Ki [1] was 95 ± 9 µM, the melting point was 134 to 140 °C (dec.) and the Ki [2] was 159 ± 25 µM.

`COC(=O)CCP(=O)(O)C(CC(C)C)NC(=O)[C@@H](N)CCSC` (stereo partly drawn) [Compound 2, Methyl 3-[(1-((S)-2-amino-4-(methylthio)butanamido)-3-methylbutyl)phosphinyl]propanoate] showed a Ki [1] of 1090 ± 73 µM, a melting point of 183 to 184 °C and a Ki [2] of 649 ± 43 µM.

In the case of `COC(=O)CCP(=O)(O)C(CCc1ccccc1)NC(=O)[C@@H](N)CCSC` (stereo partly drawn) [Compound 1, Methyl 3-[(1-((S)-2-amino-4-(methylthio)butanamido)-3-phenylpropyl)phosphinyl]propanoate], the Ki [1] is reported as 532 ± 46 µM, the melting point is reported as 161 to 164 °C and the Ki [2] is reported as 38 ± 9 µM.

For `CC(C)C[C@H](N)C(=O)Nc1ccc([N+](=O)[O-])cc1` [L-Leu-pNA, L-leucine-p-nitroanilide], the Km [3] is listed as 770 µM, the Km ([1]; SsLAP isolated from porcine kidney, read-out: KM of the isolated enzyme on the synthetic substrate) is listed as 860 µM and the Km [4] is listed as 550 µM.

In the case of `COC(=O)CCP(=O)(O)C(CC(C)C)NC(=O)[C@@H](N)Cc1ccc(C(=O)c2ccccc2)cc1` (stereo partly drawn) [Compound 9, Methyl 3-[(1-((S)-2-amino-3-(4-benzoylphenyl)propanamido)-3-methylbutyl)phosphinyl]-propanoate], the Ki [1] is reported as 507 ± 31 µM, the melting point is reported as 124 to 126 °C and the Ki [2] is reported as 797 ± 76 µM.

`COC(=O)CCP(=O)(O)C(CCc1ccccc1)NC(=O)[C@@H](N)Cc1ccc(-c2ccccc2)cc1` (stereo partly drawn) [Compound 6, Methyl 3-[(1-((S)-3-([1,1′-biphenyl]-4-yl)-2-aminopropanamido)-3-phenylpropyl)phosphinyl]-propanoate] gave a Ki [1] of 175 ± 3 µM, a melting point of 126 to 128 °C and a Ki [2] of 878 ± 70 µM.

Work on `CSCC[C@H](N)C(=O)NC(CC(C)C)P(=O)(O)CCC(=O)O` (stereo partly drawn) [Compound 5, 3-[(1-((S)-2-Amino-4-(methylthio)butanamido)-3-methylbutyl)phosphinyl]propanoic acid] yielded a Ki [1] of 3620 ± 433 µM, a melting point of 218 to 222 °C and a Ki [2] of 1040 ± 102 µM.

In the case of `COC(=O)CCP(=O)(O)C(CC(C)C)NC(=O)[C@@H](N)CCO` (stereo partly shown) [Compound 3], the Ki [1] is reported as 14 ± 1 µM, the melting point is reported as 174 to 176 °C and the Ki [2] is reported as 121 ± 19 µM.
